Data set [1] concerns MRL/lpr mice. The data set can be described thus: Serum autoantibodies by ELISA in MRL/lpr and MRL/++ mice. Format: in vivo, mouse. The settings on record: 16 weeks of age. As to the method:
FTS was synthesized as previously described (13). FTS was stored in chloroform, which was evaporated under a stream of nitrogen immediately before use. The powder was dissolved in absolute ethanol and diluted to the desired concentration in sterile saline made basic with NaOH. 200 μl of carrier solution containing 100 μg of FTS (5 mg/kg) were injected intraperitoneally (i.p.) into each mouse. Control solution was prepared at the same time starting with a chloroform solution.
Mice were treated once a day, 3-5 times a week starting from 6 or 10 weeks of age until 18 weeks of age.
The mice were bled at 16 weeks of age by retro-orbital sinus puncture and the sera were separated by centrifugation and stored at −70° C. until assayed. The sera were tested by ELISA for the presence of different autoantibodies as previously described (15, 16). This included serum dependent (β2-GPI dependent) and independent antibodies to cardiolipin (aCL) and antibodies to single and double stranded DNA (anti-ssDNA, anti-dsDNA).

A short description of data set [2]: Distribution of 3H-FTS in plasma and liver. It is filed as in vivo, rat. Conditions: 5 mg/Kg. Here is the method: For each set of experiments, FTS was prepared in chloroform (0.1 M stock solution) and maintained at −70° C. The chloroform was removed from the stock solution by a stream of nitrogen prior to use, and FTS was then dissolved either in DMSO (in vitro experiments) or in ethanol (in vivo experiments). The FTS/DMSO solutions were diluted with DMEM/10% fetal calf serum (FCS) to yield a 100×drug stock solution containing 10% DMSO. A portion of this solution was applied to the cells at a dilution of 1:100. The FTS/ethanol solution was alkalinized by the addition of 1N NaOH, then diluted with phosphate-buffered saline (PBS) to obtain a solution of 1.0 mg FTS/ml (pH 8.0, 0.5% ethanol). This solution (1-1.5 ml per rat) was used in the in vivo experiments. In a separate set of experiments, the distribution of FTS in the plasma and in the liver was assayed by the use of 3H -FTS (12.5 ci/mmole, ARC, St. Louis Mo.). […] The estimated concentration FTS in the liver at peak times (20 to 60 min) was 29 μM. Drug levels in the liver declined thereafter to the level of 0.5 μM at 24 h.

The test system of data set [3] is spleen lymphocytes of MRL/lpr and MRL/++ mice. The data set can be described thus: MRL/lpr and MRL/++ mouse spleen lymphocyte proliferation ex vivo. It is filed as in vivo. The settings on record: for response to ConA (stimulation index): 5 mg/Kg FTS for 3 months. As to the method:
Mice were killed by cervical dislocation and spleens removed with sterile precautions and placed in disposable plastic Petri dishes containing Dulbecco's phosphate-buffered saline (DPBS). Single cell suspensions were obtained by expressing DPBS through the spleen using a syringe and 19 gauge needle. The cells were suspended in DPBS and centrifuged at 1100 rpm for 7 minutes. Erythrocytes were lysed by a 7-minute incubation in 0.83% (weight/volume) ammonium chloride, and cells were immediately washed three times with DPBS. Spleen cells were suspended to a concentration of 3×10^6 cells/ml in RPMI-1640 medium containing 5% fetal calf serum (FCS), 100 units/ml penicillin, 100 μg/ml streptomycin, 2 mM L-glutamine, 0.1 mM non-essential amino acids, 1 mM sodium pyruvate, and 50 μM 2-mercaptoethanol. Cells were cultured at a concentration of 6×10^5 cells/200 μl culture medium/well in 96-well, flat-bottomed, microculture plates, and were incubated for 72 hours in a humidified atmosphere of 95% air and 5% CO2 at 37° C. At the end of this time, 1 μCi tritiated thymidine (3H-TdR) was added to each well in a 10 μl volume and the cultures were further incubated for 18 hours. Cells from each microculture were harvested on fibroglass filters with multiharvester and counted in liquid scintillation β counter.
Mitogens and antigens were diluted to appropriate concentrations in the incubation medium and added to the wells at the beginning of incubation period to give a final concentration of 1.0 μg/ml lipopolysaccharide (LPS), 1.0 μg/ml Concanavalin A (ConA) or 10 μg/ml beta2-Glycoprotein I (beta2-GPI). Spontaneous proliferation (without mitogen or antigen) was also assessed.
To determine the effect of FTS on the MRL/lpr and MRL/++ mouse splenocyte proliferation ex vivo, spleen cells suspensions were prepared from three individual spleens per group, and were separately analyzed in culture (in triplicate). Splenocyte proliferation was evaluated in the presence of LPS, ConA or β2-GPI.
The results are expressed as the mean value of stimulation index per group. The stimulation index was calculated as follows: the mean dpm of cells cultured in the presence of mitogen/antigen divided by the mean dpm of cells cultured in the absence of mitogen/antigen.
The effect of FTS on lymphocyte proliferation in vivo in MRL/lpr and control MRL/++ mice was determined by ex-vivo experiments. The mice received 5 mg/Kg FTS (5 days a week) for 3 months and spleen lymphocyte proliferation assays were then performed in vitro with no added FTS. Baseline 3H-TdR incorporation was similar in all four groups examined except for a trend towards higher values in the MRL/++ mice treated with FTS. […] As described previously (18, 19), the response of the MRL/lpr mice to ConA was markedly lower than in the MRL/++ control mice. […] An antigen-specific proliferative response to β2-GPI was measured and a significant 50% reduction in the response of lymphocytes of FTS-treated mice was measured in both MRL/lpr and MRL/++ mice.

Structures are written as SMILES. “Also recorded” adds a separate entry of the source.

Turning to `CC(C)=CCC/C(C)=C/CC/C(C)=C/CSc1ccccc1C(=O)O` [FTS, farnesyl thiosalicylic acid], in data set [1], the “levels of anti-dsDNA antibodies” value is listed as “did lower the levels; also recorded: significant decrease”, the “levels of anti-ssDNA antibodies” value is “did not affect the levels”, the “levels of non-serum dependent aCL antibodies” value is “did not affect the levels” and the “levels of β2-GPI dependent aCL antibodies” value was “did lower the levels; also recorded: significant decrease”. Besides, in data set [2], the “estimated concentration of FTS in the liver at peak times” value is 29 µM; the “peak liver levels, % of the injected dose” value was 1.75%; the “peak plasma levels, % of the injected dose” value is listed as 10.7%; the “peak times in the liver” value is reported as 20 to 60 min. In addition, in data set [2] (Wistar, rat, liver, other: injected (type of injection not given), read-out: drug level in the liver at 24 h), the concentration at 24 h came out at 500 nM. Moreover, the “reduction of the response to LPS (stimulation index)” value in data set [3] (5 mg/Kg FTS 5 days a week for 3 months) is listed as “two-fold reduction”. For the same compound, the “decrease in splenocyte proliferation to ConA, LPS and β2-GPI” value in data set [3] (FTS 5 mg/Kg/day) came to 50%. Besides, the “response to ConA (stimulation index)” value in data set [3] (MRL/++ mice) is listed as “not in lymphocytes of the FTS-treated MRL/++”. For the same compound, in data set [3] (MRL/lpr mice), the “response to ConA (stimulation index)” value is on record as “further reduced”. Moreover, the “reduction in the proliferative response to β2-GPI” value in data set [3] (both MRL/lpr and MRL/++ mice) is 50%.

Source of the values: patent US6462086B1, “Non-malignant disease treatment with Ras antagonists” (Ramot University Authority for Applied Research and …, priority 1999, dated 2002).
